Data from patent publication US6737383B1, “Herbicidal oxadiazolidines” (priority 1999, dated 2004).

What was measured:
giant foxtail = test: Test B pre/postemergence giant foxtail; format: in vivo, Setaria faberii; conditions: for Giant foxtail plant response rating: scale of 0 to 10 where 0 is no effect and 10 is complete control
Method in brief: (§1)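 Response is a visual 0-to-10 score relative to untreated plants, where 0 means no effect and 10 means complete control, taken twelve to sixteen days after application. Treatments went onto soil at planting and onto foliage of 1- to 4-leaf plants, using a surfactant-containing non-phytotoxic solvent.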

purple nutsedge = test: Test B pre/postemergence purple nutsedge; format: in vivo, Cyperus rotundus; conditions: for Nutsedge plant response rating: scale of 0 to 10 where 0 is no effect and 10 is complete control
Method in brief: as §1

rape = test: Test B pre/postemergence rape; format: in vivo, Brassica napus; conditions: for Rape plant response rating: scale of 0 to 10 where 0 is no effect and 10 is complete control
Method in brief: as §1

duck salad = test: Test B flood test duck salad; format: in vivo, Heteranthera limosa
Method in brief: (§2)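 Read-out is a visual response score from 0 (no effect) to 10 (complete control), assigned by comparison with untreated controls. Treatment was applied at the 2-leaf stage, and plants stayed in the greenhouse for twelve to sixteen days before scoring.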

smallflower flatsedge = test: Test B flood test smallflower flatsedge; format: in vivo, Cyperus difformis
Method in brief: as §2

surinam grass = test: Test B pre/postemergence surinam grass; format: in vivo, Brachiaria decumbens
Method in brief: as §1

morningglory = test: Test B pre/postemergence morningglory; format: in vivo, Ipomoea hederacea; conditions: for Morningglory plant response rating: scale of 0 to 10 where 0 is no effect and 10 is complete control
Method in brief: as §1

bedstraw = test: Test B pre/postemergence bedstraw; format: in vivo, Galium aparine
Method in brief: as §1

soybean = test: Test B pre/postemergence soybean; format: in vivo, Glycine max; conditions: for Soybean plant response rating: scale of 0 to 10 where 0 is no effect and 10 is complete control
Method in brief: as §1

velvetleaf = test: Test B pre/postemergence velvetleaf; format: in vivo, Abutilon theophrasti; conditions: for Velvetleaf plant response rating: scale of 0 to 10 where 0 is no effect and 10 is complete control
Method in brief: as §1

pigweed = test: Test B pre/postemergence pigweed; format: in vivo, Amaranthus retroflexus; conditions: for Redroot pigweed plant response rating: scale of 0 to 10 where 0 is no effect and 10 is complete control
Method in brief: as §1

corn = test: Test B pre/postemergence corn; format: in vivo, Zea mays; conditions: for Corn plant response rating: scale of 0 to 10 where 0 is no effect and 10 is complete control
Method in brief: as §1

bamyardgrass = test: Test B flood test barnyardgrass; format: in vivo, Echinochloa crus-galli
Method in brief: as §2

blackgrass = test: Test B pre/postemergence blackgrass; format: in vivo, Alopecurus myosuroides
Method in brief: as §1

sugar beet = test: Test B pre/postemergence sugar beet; format: in vivo, Beta vulgaris; conditions: for Sugarbeets plant response rating: scale of 0 to 10 where 0 is no effect and 10 is complete control
Method in brief: as §1

cocklebur = test: Test B pre/postemergence cocklebur; format: in vivo, Xanthium strumarium; conditions: for Cocklebur plant response rating: scale of 0 to 10 where 0 is no effect and 10 is complete control
Method in brief: as §1

[1] = Postemergence, Rate 125 g/ha, scale 0 to 10, 0 is no effect, 10 is complete control
[2] = Preemergence, Rate 62 g/ha, scale 0 to 10 (0 no effect, 10 complete control)
[3] = Rate 500 g/ha, Postemergence, scale 0 to 10, 0 no effect, 10 complete control
[4] = Postemergence (flood test), Rate 125 g/ha, scale 0 to 10, 0 is no effect, 10 is complete control
[5] = Rate 62 g/ha, Postemergence (flood test species), scale of 0 to 10 where 0 is no effect and 10 is complete control
[6] = Rate 500 g/ha, listed under Postemergence (flood test species), scale 0 to 10, 0 no effect, 10 complete control
[7] = Preemergence, Rate 250 g/ha, scale of 0 to 10 where 0 is no effect and 10 is complete control
[8] = Preemergence, Rate 500 g/ha, scale of 0 to 10 where 0 is no effect and 10 is complete control
[9] = Rate 62 g/ha, Postemergence, scale of 0 to 10 where 0 is no effect and 10 is complete control
[10] = Rate 250 g/ha, Postemergence, scale of 0 to 10 where 0 is no effect and 10 is complete control

## Cc1c(-n2c(=O)on(C(=O)N(c3ccccc3)C(C)C)c2=O)ccc2ccccc12 [Compound 344]
Giant foxtail; [1]
  Plant response rating, Giant foxtail: 0
Giant foxtail; [2]
  Plant response rating, Giant foxtail: 0
Giant foxtail; Preemergence, Rate 125 g/ha
  Giant foxtail plant response rating (0 to 10 scale): 2
Giant foxtail; Preemergence, Rate 250 g/ha
  Giant foxtail plant response rating: 3
Giant foxtail; Preemergence, Rate 500 g/ha
  Giant foxtail plant response rating: 8
Giant foxtail; Rate 62 g/ha, Postemergence
  Giant foxtail plant response rating: 0
Giant foxtail; [3]
  Plant response rating, Giant foxtail: 0
Purple nutsedge; [1]
  Plant response rating, Nutsedge: 0
Purple nutsedge; [2]
  Plant response rating, Nutsedge: 0
Purple nutsedge; Preemergence, Rate 125 g/ha
  Nutsedge plant response rating (0 to 10 scale): 0
Purple nutsedge; Preemergence, Rate 250 g/ha
  Nutsedge plant response rating: 0
Purple nutsedge; Preemergence, Rate 500 g/ha
  Nutsedge plant response rating: 0
Purple nutsedge; Rate 62 g/ha, Postemergence
  Nutsedge plant response rating: 0
Purple nutsedge; [3]
  Plant response rating, Nutsedge: 0
rape; [1]
  Plant response rating, Rape: 0
rape; [2]
  Plant response rating, Rape: 0
rape; Preemergence, Rate 125 g/ha
  Rape plant response rating (0 to 10 scale): 0
rape; Preemergence, Rate 250 g/ha
  Rape plant response rating: 0
rape; Rate 62 g/ha, Postemergence
  Rape plant response rating: 0
rape; [3]
  Plant response rating, Rape: 0
Duck salad; [4]
  Plant response rating, Ducksalad: 0
Duck salad; [5]
  Ducksalad plant response rating: 0
Duck salad; [6]
  Plant response rating, Ducksalad: 0
Smallflower flatsedge; [4]
  Plant response rating, S. Flatsedge: 0
Smallflower flatsedge; [5]
  S. Flatsedge plant response rating: 0
Smallflower flatsedge; [6]
  Plant response rating, S. Flatsedge: 0
Surinam grass; [1]
  Plant response rating, B. signalgrass: 0
Surinam grass; [2]
  Plant response rating, B. signalgrass: 0
Surinam grass; Preemergence, Rate 125 g/ha
  B. signalgrass plant response rating (0 to 10 scale, 0 is no effect, 10 is complete control): 0
Surinam grass; [7]
  B. signalgrass plant response rating: 0
Surinam grass; [8]
  B. signalgrass plant response rating: 0
Surinam grass; [9]
  B. signalgrass plant response rating: 0
Surinam grass; [10]
  Plant response rating, B. signalgrass: 0
Surinam grass; [3]
  Plant response rating, B. signalgrass: 0
morningglory; [1]
  Plant response rating, Morningglory: 0
morningglory; [2]
  Plant response rating, Morningglory: 0
morningglory; Preemergence, Rate 125 g/ha
  Morningglory plant response rating (0 to 10 scale): 0
morningglory; Preemergence, Rate 250 g/ha
  Morningglory plant response rating: 0
morningglory; Preemergence, Rate 500 g/ha
  Morningglory plant response rating: 0
morningglory; Rate 62 g/ha, Postemergence
  Morningglory plant response rating: 0
morningglory; [3]
  Plant response rating, Morningglory: 0
bedstraw; [1]
  Plant response rating, Bedstraw: 0
bedstraw; [2]
  Plant response rating, Bedstraw: 0
bedstraw; Preemergence, Rate 125 g/ha
  Bedstraw plant response rating (0 to 10 scale): 0
bedstraw; [9]
  Bedstraw plant response rating: 0
bedstraw; [10]
  Plant response rating, Bedstraw: 0
bedstraw; [3]
  Plant response rating, Bedstraw: 0
soybean; [1]
  Plant response rating, Soybean: 2
soybean; [2]
  Plant response rating, Soybean: 0
soybean; Preemergence, Rate 125 g/ha
  Soybean plant response rating (0 to 10 scale): 0
soybean; Preemergence, Rate 250 g/ha
  Soybean plant response rating: 0
soybean; Preemergence, Rate 500 g/ha
  Soybean plant response rating: 0
soybean; Rate 62 g/ha, Postemergence
  Soybean plant response rating: 2
soybean; [3]
  Plant response rating, Soybean: 2
velvetleaf; [1]
  Plant response rating, Velvetleaf: 0
velvetleaf; [2]
  Plant response rating, Velvetleaf: 0
velvetleaf; Preemergence, Rate 125 g/ha
  Velvetleaf plant response rating (0 to 10 scale): 0
velvetleaf; Preemergence, Rate 250 g/ha
  Velvetleaf plant response rating: 0
velvetleaf; Preemergence, Rate 500 g/ha
  Velvetleaf plant response rating: 0
velvetleaf; Rate 62 g/ha, Postemergence
  Velvetleaf plant response rating: 0
velvetleaf; [3]
  Plant response rating, Velvetleaf: 0
pigweed; [1]
  Plant response rating, Redroot pigweed: 0
pigweed; [2]
  Plant response rating, Redroot pigweed: 0
pigweed; Preemergence, Rate 125 g/ha
  Redroot pigweed plant response rating (0 to 10 scale): 0
pigweed; Preemergence, Rate 250 g/ha
  Redroot pigweed plant response rating: 0
pigweed; Preemergence, Rate 500 g/ha
  Redroot pigweed plant response rating: 0
pigweed; Rate 62 g/ha, Postemergence
  Redroot pigweed plant response rating: 0
pigweed; [3]
  Plant response rating, Redroot pigweed: 2
corn; [1]
  Plant response rating, Corn: 0
corn; [2]
  Plant response rating, Corn: 0
corn; Preemergence, Rate 125 g/ha
  Corn plant response rating (0 to 10 scale): 0
corn; Preemergence, Rate 250 g/ha
  Corn plant response rating: 0
corn; Preemergence, Rate 500 g/ha
  Corn plant response rating: 0
corn; Rate 62 g/ha, Postemergence
  Corn plant response rating: 0
corn; [3]
  Plant response rating, Corn: 0
bamyardgrass; [4]
  Plant response rating, Barnyardgrass: 0
bamyardgrass; [5]
  Barnyardgrass plant response rating: 0
bamyardgrass; Rate 250 g/ha, Postemergence (flood test species), scale of 0 to 10 where 0 is no effect and 10 is complete control
  Plant response rating, Barnyardgrass: 0
bamyardgrass; [6]
  Plant response rating, Barnyardgrass: 0
blackgrass; [1]
  Plant response rating, Blackgrass: 0
blackgrass; [2]
  Plant response rating, Blackgrass: 0
blackgrass; Preemergence, Rate 125 g/ha
  Blackgrass plant response rating (0 to 10 scale): 0
blackgrass; [7]
  Blackgrass plant response rating: 0
blackgrass; [8]
  Blackgrass plant response rating: 0
blackgrass; [9]
  Blackgrass plant response rating: 0
blackgrass; [10]
  Plant response rating, Blackgrass: 0
blackgrass; [3]
  Plant response rating, Blackgrass: 0
Sugar beet; [1]
  Plant response rating, Sugarbeets: 0
Sugar beet; [2]
  Plant response rating, Sugarbeets: 0
Sugar beet; Preemergence, Rate 125 g/ha
  Sugarbeets plant response rating (0 to 10 scale): 0
Sugar beet; Preemergence, Rate 250 g/ha
  Sugarbeets plant response rating: 0
Sugar beet; Preemergence, Rate 500 g/ha
  Sugarbeets plant response rating: 0
Sugar beet; Rate 62 g/ha, Postemergence
  Sugarbeets plant response rating: 0
Sugar beet; [3]
  Plant response rating, Sugarbeets: 0
cocklebur; [1]
  Plant response rating, Cocklebur: 0
cocklebur; [2]
  Plant response rating, Cocklebur: 0
cocklebur; Preemergence, Rate 125 g/ha
  Cocklebur plant response rating (0 to 10 scale): 0
cocklebur; Preemergence, Rate 250 g/ha
  Cocklebur plant response rating: 0
cocklebur; Preemergence, Rate 500 g/ha
  Cocklebur plant response rating: 0
cocklebur; Rate 62 g/ha, Postemergence
  Cocklebur plant response rating: 0
cocklebur; [3]
  Plant response rating, Cocklebur: 0
